From ChEMBL document CHEMBL3351405, “Novel tricyclic pyrazolopyrimidines as potent and selective GPR119 agonists” (Bioorg Med Chem Lett, 2014)
In brackets after ≈: the same amount, converted by molar mass.

Experiments:
[1] = biological target: T1, Glucose-dependent insulinotropic receptor (Homo sapiens, UniProt Q8TDV5); assay: Agonist activity at human GPR119 overexpressed in CHO cells assessed as increase in cellular cAMP production by HTRF method; assay type: functional, cell-based
T1 sequence (Q8TDV5 whole entry): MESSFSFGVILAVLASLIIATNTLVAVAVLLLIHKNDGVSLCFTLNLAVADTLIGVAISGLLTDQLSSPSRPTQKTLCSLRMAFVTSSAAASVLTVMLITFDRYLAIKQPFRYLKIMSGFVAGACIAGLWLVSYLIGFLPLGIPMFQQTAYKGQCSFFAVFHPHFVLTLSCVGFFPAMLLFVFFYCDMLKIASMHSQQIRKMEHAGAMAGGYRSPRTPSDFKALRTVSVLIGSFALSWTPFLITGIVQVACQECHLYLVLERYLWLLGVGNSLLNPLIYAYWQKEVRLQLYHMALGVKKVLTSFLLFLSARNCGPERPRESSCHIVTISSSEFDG

[2] = biological target: T2, Glucose-dependent insulinotropic receptor (Homo sapiens) (UniProt Q8TDV5); assay: Agonist activity at human GPR119 overexpressed in CHO cells assessed as increase in cellular cAMP production by HTRF method relative to AR231453; assay type: functional, cell-based
T2 sequence (whole entry): T1 sequence (Q8TDV5 whole entry)

[3] = biological target: T3, Glucose-dependent insulinotropic receptor (Mus musculus, UniProt Q7TQP3); assay: Agonist activity at mouse GPR119 overexpressed in CHO cells assessed as increase in cellular cAMP production by HTRF method; assay type: functional, cell-based
T3 sequence (Q7TQP3 whole entry): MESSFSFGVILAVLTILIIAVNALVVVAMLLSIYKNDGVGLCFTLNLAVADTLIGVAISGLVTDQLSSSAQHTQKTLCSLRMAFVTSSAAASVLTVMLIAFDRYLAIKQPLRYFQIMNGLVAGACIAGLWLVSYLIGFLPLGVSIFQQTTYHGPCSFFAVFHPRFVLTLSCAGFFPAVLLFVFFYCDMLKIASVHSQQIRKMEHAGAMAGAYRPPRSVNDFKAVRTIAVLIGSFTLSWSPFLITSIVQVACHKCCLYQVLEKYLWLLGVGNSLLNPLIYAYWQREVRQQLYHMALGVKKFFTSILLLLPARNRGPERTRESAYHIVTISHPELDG

[4] = biological target: T4, Glucose-dependent insulinotropic receptor (Mus musculus) (UniProt Q7TQP3); assay: Agonist activity at mouse GPR119 overexpressed in CHO cells assessed as increase in cellular cAMP production by HTRF method relative to AR231453; assay type: functional, cell-based
T4 sequence (whole entry): T3 sequence (Q7TQP3 whole entry)

[5] = Clearance in human liver microsomes assessed as extraction ratio; assay type: ADME; conditions: read-out: ERH
[6] = system: Mus musculus; assay: Dose normalized AUC in po dosed Balb/C mouse; assay type: ADME, organism-based; conditions: in vivo
[7] = Solubility of the compound at pH 6.8; assay type: physicochemical; conditions: buffer
[8] = Clearance in rat liver microsomes assessed as extraction ratio; assay type: ADME; conditions: read-out: ERH
[9] = Clearance in mouse liver microsomes assessed as extraction ratio; assay type: ADME; conditions: read-out: ERH
[10] = system: Mus musculus; assay: Increase in plasma GLP1 level in 16 hrs fasted wild-type C57BL/6J mouse at 10 mg/kg, po administered as single dose 30 mins prior to glucose excursion measured after 2 mins by ELISA relative to vehicle-treated control; assay type: functional
[11] = system: Rattus norvegicus; assay: Antidiabetic activity in ZDF fa/fa rat model assessed as reduction in glucose AUC at 3 mg/kg, po qd administered 1 hr prior to glucose bolus after 2 weeks by OGTT relative to vehicle-treated control; assay type: functional, Zucker; parameters: scale not given: the % may be the effect or the level left
[12] = system: Rattus norvegicus; assay: Antidiabetic activity in ZDF fa/fa rat model assessed as reduction in glucose AUC at 10 mg/kg, po qd administered 1 hr prior to glucose bolus after 2 weeks by OGTT relative to vehicle-treated control; assay type: functional, Zucker; parameters: scale not given: the % may be the effect or the level left
[13] = system: Rattus norvegicus; assay: Antidiabetic activity in ZDF fa/fa rat model assessed as reduction in glucose AUC at 30 mg/kg, po qd administered 1 hr prior to glucose bolus after 2 weeks by OGTT relative to vehicle-treated control; assay type: functional, Zucker; parameters: scale not given: the % may be the effect or the level left

SMILES	EC50 [1] [nM]	Efficacy [2] [%]	EC50 [3] [nM]	Efficacy [4] [%]	hepatic extraction ratio [5]	other results
CCOC(=O)[C@@]1(Cc2ccccc2)CNc2cnc3c(-c4ccc(C(F)(F)F)cc4)cnn3c21	25	75	25	80	0.75	–
CCOC(=O)C1(Cc2cccc(F)c2)NC(=O)c2cnc3c(-c4ccc(C(F)(F)F)cc4)cnn3c21 (racemic)	298	81	–	–	–	–
CCOC(=O)C1(Cc2ccccc2)CCc2cnc3c(-c4ccc(Oc5ccccc5)cc4)cnn3c21 (racemic)	20	60	–	–	–	–
Fc1cccc(CC2(C3CC3)NCc3cnc4c(-c5ccc(C(F)(F)F)cc5)cnn4c32)c1 (racemic)	21	87	–	–	0.6	–
[2H]C([2H])(O)c1nn2c3c(cnc2c1-c1ccc(C(F)(F)F)cc1)CN[C@]3(Cc1cccc(F)c1)C(=O)OC	2	–	–	–	0.83	AUC/dose [6]: 7.89 µM·h; solubility [7]: 26 µM (≈ 13.1 µg/mL)
COC(=O)C1(Cc2ccccc2)CCc2cnc3c(-c4ccc(C(F)(F)F)cc4)cnn3c21 (racemic)	2	82	17	91	0.93	–
COC(=O)[C@@]1(Cc2cccc(F)c2)N=Cc2cnc3c(-c4ccc(C(F)(F)F)cc4)cnn3c21	73	84	135	80	0.97	–
CCOC(=O)[C@@]1(Cc2ccccc2)CCc2cnc3c(-c4ccc(C(F)(F)F)cc4)cnn3c21	0.5	85	8	80	0.96	hepatic extraction ratio [8]: 0.6; hepatic extraction ratio [9]: 0.6; AUC/dose [6]: 0.3 µM·h
COC(=O)[C@@]1(Cc2cccc(F)c2)NCc2cnc3c(-c4ccc(C(F)(F)F)cc4)c(C(N)=O)nn3c21	20	74	–	–	0.92	solubility [7]: 39 µM (≈ 20 µg/mL)
COCCN(C)C(=O)[C@@]1(Cc2cccc(F)c2)NCc2cnc3c(-c4ccc(C(F)(F)F)cc4)cnn3c21	2	90	–	–	0.9	AUC/dose [6]: 0.07 µM·h; solubility [7]: < 5 µM
COC(=O)C1(Cc2ccccc2)OCc2cnc3c(-c4ccc(C(F)(F)F)cc4)cnn3c21 (racemic)	34	77	35	78	0.96	–
OCc1nn2c3c(cnc2c1-c1ccc(C(F)(F)F)cc1)CN[C@]3(Cc1cccc(F)c1)C1CC1	2	88	–	–	0.9	solubility [7]: 6 µM (≈ 2.89 µg/mL)
COC(=O)[C@@]1(Cc2cccc(F)c2)NCc2cnc3c(-c4ccc(C(F)(F)F)cc4)c(CO)nn3c21	5	99	–	–	0.82	Efficacy ([2]; tested as the 2H-labelled form): 103%; AUC/dose [6]: 7.65 µM·h; solubility [7]: 58 µM (≈ 29 µg/mL); Activity [10]: 29%; Activity [11]: 1%; Activity [12]: 11%; Activity [13]: 37%
CCOC(=O)[C@](C)(Cc1ccccc1)c1ccnc2c(-c3ccc(C(F)(F)F)cc3)c(C)nn12	23	83	24	72	–	–
[2H]C([2H])(O)c1nn2c3c(cnc2c1-c1ccc(C(F)(F)F)nc1)CN[C@]3(Cc1cccc(F)c1)C(=O)OC	35	–	–	–	0.85	AUC/dose [6]: 6.56 µM·h; solubility [7]: 83 µM (≈ 41.8 µg/mL)
COC(=O)C1(Cc2ccccc2)CCc2cnc3c(-c4ccc(C#N)cc4)cnn3c21 (racemic)	7	55	–	–	–	–
CCOC(=O)[C@@]1(Cc2ccccc2)CCCc2cnc3c(-c4ccc(C(F)(F)F)cc4)cnn3c21	8	75	27	59	0.71	–

SMILES	EC50 [1] [nM]	Efficacy [2] [%]	EC50 [3] [nM]	Efficacy [4] [%]	hepatic extraction ratio [5]	other results
CC1(Cc2cccc(F)c2)NCc2cnc3c(-c4ccc(C(F)(F)F)cc4)cnn3c21 (racemic)	436	77	–	–	–	–
COC(=O)C1(Cc2ccccc2)COc2cnc3c(-c4ccc(C(F)(F)F)cc4)cnn3c21 (racemic)	11	83	15	76	0.88	–
CCOC(=O)C1(Cc2ccccc2)c2c(cnc3c(-c4ccc(C(F)(F)F)cc4)cnn23)CN1C (racemic)	214	55	–	–	–	–
COC(=O)[C@@]1(Cc2cccc(F)c2)NCc2cnc3c(-c4ccc(C(F)(F)F)cc4)c(C(C)(C)O)nn3c21	530	58	–	–	0.51	–
CCOC(=O)[C@](C)(Cc1ccccc1)c1c(C)cnc2c(-c3ccc(C(F)(F)F)cc3)cnn12	1	80	11	62	0.3	hepatic extraction ratio [8]: 0.3; hepatic extraction ratio [9]: 0.3; AUC/dose [6]: 0.6 µM·h
CCOC(=O)[C@](C)(Cc1ccccc1)c1c(Cl)cnc2c(-c3ccc(C(F)(F)F)cc3)cnn12	3	75	8	73	–	–
COC(=O)[C@@]1(Cc2cccc(F)c2)CCc2cnc3c(-c4ccc(C(F)(F)F)cc4)cnn3c21	3	92	9	81	0.96	–
COC(=O)C1(Cc2ccccc2)CCc2cnc3c(-c4ccc(S(C)(=O)=O)cc4)cnn3c21 (racemic)	125	81	–	–	0.89	–
CCOC(=O)[C@](C)(Cc1ccccc1)c1cc(C)nc2c(-c3ccc(Cl)cc3)cnn12	> 10	15	–	–	–	–
CCOC(=O)[C@@]1(Cc2ccccc2)CCc2cnc3c(-c4ccc(Cl)cc4)cnn3c21	3	73	11	78	0.79	–
CCOC(=O)[C@]1(Cc2ccccc2)CCc2cnc3c(-c4ccc(C(F)(F)F)cc4)cnn3c21	38	66	–	–	–	–
COC(=O)C1(Cc2ccccc2)CCCCc2cnc3c(-c4ccc(C(F)(F)F)cc4)cnn3c21 (racemic)	74	66	–	–	–	–
COC(=O)[C@@]1(Cc2cccc(F)c2)NCc2cnc3c(-c4ccc(C(F)(F)F)nc4)c(CO)nn3c21	15	101	–	–	0.82	Efficacy ([2]; tested as the 2H-labelled form): 87%; solubility [7]: 99 µM (≈ 49.6 µg/mL)
CCOC(=O)C1(Cc2ccccc2)CCCCCc2cnc3c(-c4ccc(C(F)(F)F)cc4)cnn3c21 (racemic)	101	56	–	–	–	–
OCc1nn2c3c(cnc2c1-c1ccc(C(F)(F)F)nc1)CN[C@]3(Cc1cccc(F)c1)C1CC1	6	82	–	–	0.93	solubility [7]: 36 µM (≈ 17.4 µg/mL)
COC(=O)[C@@]1(Cc2cccc(F)c2)NCc2cnc3c(-c4ccc(C(F)(F)F)cc4)cnn3c21	3	91	14	88	0.95	AUC/dose [6]: 0.31 µM·h
